Measurements as given in BindingDB's records for doi:10.1038/sj.bjp.0702658 (Universit&Agrove, 1999).

Target: T1, Melatonin receptor type 1B (Homo sapiens, UniProt P49286)
T1 sequence (P49286 whole entry): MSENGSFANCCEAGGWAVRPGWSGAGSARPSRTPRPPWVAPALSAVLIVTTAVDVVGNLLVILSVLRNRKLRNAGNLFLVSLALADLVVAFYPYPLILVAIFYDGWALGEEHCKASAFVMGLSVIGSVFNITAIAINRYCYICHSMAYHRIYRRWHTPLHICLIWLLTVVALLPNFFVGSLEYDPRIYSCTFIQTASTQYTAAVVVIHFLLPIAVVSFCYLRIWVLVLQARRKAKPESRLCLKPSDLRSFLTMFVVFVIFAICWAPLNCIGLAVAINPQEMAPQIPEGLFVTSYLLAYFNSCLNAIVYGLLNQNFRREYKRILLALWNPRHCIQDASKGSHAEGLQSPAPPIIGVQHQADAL

Compound | Ki
CC(=O)NCCc1c(Cc2ccccc2)[nH]c2ccccc12 [CAS_117946-91-5] | 11.2 nM
CC(=O)NCCc1c[nH]c2ccccc12 [N-Acetyltryptamine] | 64.6 nM

More lines, now with the values ahead:

Ki | Compound
0.03 nM | COc1ccc2[nH]c(-c3ccccc3)c(CCNC(C)=O)c2c1 [Melatonin,2-Phenyl]
339 nM | CC(=O)NCCc1c[nH]c2ccc(O)cc12 [N-Acetyltryptamine,5-Hydroxy]
85.1 nM | O=C(NCCc1c(-c2ccccc2)[nH]c2ccccc12)C1CCC1 [N-CBCPT]
